In PMC5972026 (Journal of medicinal chemistry, 2017):
Entries after “also recorded” stand apart in the source; their conditions may differ. Counter-ions that a name gives are not always drawn.

Experiments:
A/M2 V27A mutant channel [1] = target: T1, A/M2 V27A mutant channel (Influenza A virus, UniProt P0DOF5, V27A); type: cell-based
A/M2 S31N mutant channel = settings: cited from earlier work
A/M2 V27A mutant channel [2] = target: T1, A/M2 V27A mutant channel; settings: cited from earlier work
[3] = tested on: A/WSN/33 virus (H1N1 subtype), N31S/V27A M2; type: cell-based, influenza A virus

Question: For `NC12CC3CC(CC(C3)C1)C2` [Amantadine, 1-aminoadamantane], which “Inhibition by 100 μM for 2 min (%)” value (A/M2 V27A mutant channel [1]) is on record?
Answer: 8.9 ± 1.0%

Question: What about the IC50 (A/M2 S31N mutant channel) of the same compound?
Answer: 200 µM

Question: What about the “Activity against the V27A mutant” value (A/M2 V27A mutant channel [2]) of the same compound?
Answer: totally inactive

Question: For `C1CC(C23CC4CC(CC(C4)C2)C3)CCN1` [Compound 2, 4-(1-adamantyl)piperidine hydrochloride], which “Binding behaviour” value (A/M2 V27A mutant channel [1]) is on record?
Answer: fast and weak

Question: What about the “Antiviral activity in 46-h PRA” value [3] of the same compound?
Answer: weak activity; also recorded: minimal antiviral activity

Question: With `C1CC(C2C3CC4CC(C3)CC2C4)CCN1` (stereo not drawn) [Compound 3, 4-(Adamantan-2-yl)piperidine hydrochloride] as the compound, how does the “Antiviral activity in 46-h PRA” value [3] read?
Answer: inactive

Question: With `N=C(N)N1CCC(C23CC4CC(CC(C4)C2)C3)CC1` [Compound 7, N-amidyl-4-(1-adamantyl)piperidine hydrochloride] as the compound, how does the “Binding behaviour” value (A/M2 V27A mutant channel [1]) read?
Answer: fast and weak binder

Question: What about the “Antiviral activity in 46-h PRA” value [3] of the same compound?
Answer: inactive

Question: Which results are given for `C1CCC(C23CC4CC(CC(C4)C2)C3)NC1` (stereo not drawn) [Compound 8, 2-(1-adamantyl)piperidine hydrochloride]?
Answer: Binding behaviour (A/M2 V27A mutant channel [1]): no remarkable binding at all; Time after which inhibition is at steady-state (A/M2 V27A mutant channel [1]): ≤ 1 min; Antiviral activity in 46-h PRA [3]: inactive

Question: For `N=C(N)N1CCC(C=C2C3CC4CC(C3)CC2C4)CC1` [Compound 19, 4-[(adamantan-2-ylidene)methyl]piperidine-1-carboximidamide hydrochloride], which “Antiviral activity in 46-h PRA” value [3] is on record?
Answer: inactive
